Experiments:
Assay type in all cases: in vivo
Plutella xylostella = assay: Activity against Plutella xylostella (diamond back moth), artificial diet, eggs; details: 192 h, application rate 200 ppm, 8 days after infestation, read-out: control in at least one of the two categories (mortality or growth inhibition)
Description: Example B7: Activity Against Plutella xylostella (Diamond Back Moth)
24-well microtiter plates with artificial diet were treated with aqueous test solutions prepared from 10′000 ppm DMSO stock solutions by pipetting. After drying, Plutella eggs were pipetted through a plastic stencil onto a gel blotting paper and the plate was closed with it. The samples were assessed for mortality and growth inhibition in comparison to untreated samples 8 days after infestation.

Spodoptera littoralis = assay: Activity against Spodoptera littoralis (Egyptian cotton leaf worm), cotton leaf discs, L1 larvae; details: foliar, 72 h, application rate 200 ppm, 3 days after infestation, read-out: control in at least one of the three categories (mortality, anti-feedant effect, or growth inhibition)
Description: Example B8: Activity Against Spodoptera littoralis (Egyptian Cotton Leaf Worm)
Cotton leaf discs were placed onto agar in 24-well microtiter plates and sprayed with aqueous test solutions prepared from 10′000 ppm DMSO stock solutions. After drying the leaf discs were infested with five L1 larvae. The samples were assessed for mortality, anti-feeding effect, and growth inhibition in comparison to untreated samples 3 days after infestation. Control of Spodoptera littoralis by a test sample is given when at least one of the categories mortality, anti-feedant effect, and growth inhibition is higher than the untreated sample.

Diabrotica balteata = assay: Activity against Diabrotica balteata (corn root worm), maize sprouts, L2 larvae; details: 96 h, application rate 200 ppm, 4 days after infestation, read-out: control in at least one of the two categories (mortality or growth inhibition)
Description: Example B2: Activity Against Diabrotica Balteata (Corn Root Worm)
Maize sprouts placed onto an agar layer in 24-well microtiter plates were treated with aqueous test solutions prepared from 10′000 ppm DMSO stock solutions by spraying. After drying, the plates were infested with L2 larvae (6 to 10 per well). The samples were assessed for mortality and growth inhibition in comparison to untreated samples 4 days after infestation.

Chilo suppressalis = assay: Activity against Chilo suppressalis (striped rice stemborer), artificial diet, L2 larvae; details: 144 h, application rate 200 ppm, 6 days after infestation, read-out: control in at least one of the three categories (mortality, anti-feedant effect, or growth inhibition)
Description: Example B1: Activity Against Chilo suppressalis (Striped Rice Stemborer)
24-well microtiter plates with artificial diet were treated with aqueous test solutions prepared from 10′000 ppm DMSO stock solutions by pipetting. After drying, the plates were infested with L2 larvae (6-8 per well). The samples were assessed for mortality, anti-feeding effect, and growth inhibition in comparison to untreated samples 6 days after infestation. Control of Chilo suppressalis by a test sample is given when at least one of the categories mortality, anti-feedant effect, and growth inhibition is higher than the untreated sample.

Myzus persicae = assay: Activity against Myzus persicae (green peach aphid), intrinsic activity; details: 120 h, test rate 12 ppm, 5 days after infestation
Text: Example B6: Activity Against Myzus persicae (Green Peach Aphid). Intrinsic Activity
Test compounds prepared from 10′000 ppm DMSO stock solutions were applied by pipette into 24-well microtiter plates and mixed with sucrose solution. The plates were closed with a stretched Parafilm. A plastic stencil with 24 holes was placed onto the plate and infested pea seedlings were placed directly on the Parafilm. The infested plate was closed with a gel blotting paper and another plastic stencil and then turned upside down. The samples were assessed for mortality 5 days after infestation.

Euschistus heros = assay: Activity against Euschistus heros (neotropical brown stink bug), soybean leaves, N2 nymphs; details: 120 h, application rate 200 ppm, 5 days after infestation, read-out: effect in at least one of the two categories (mortality or growth inhibition)
Description: Example B3: Activity Against Euschistus heros (Neotropical Brown Stink Bug)
Soybean leaves on agar in 24-well microtiter plates were sprayed with aqueous test solutions prepared from 10′000 ppm DMSO stock solutions. After drying the leaves were infested with N2 nymphs. The samples were assessed for mortality and growth inhibition in comparison to untreated samples 5 days after infestation.

CC(NC(=O)c1cc(C(F)(F)F)cc(C(F)(F)F)c1)c1nccnc1-c1ccc(=O)n(C)n1 (stereo not shown) [P3, N-[1-[3-(1-methyl-6-oxo-pyridazin-3-yl)pyrazin-2-yl]ethyl]-3,5-bis(trifluoromethyl)benzamide]
≥ 80%: percent control (mortality or growth inhibition) at 200 ppm (Plutella xylostella) | percent control (mortality, anti-feedant effect or growth inhibition) at 200 ppm (Spodoptera littoralis) | percent control (mortality or growth inhibition) at 200 ppm (Diabrotica balteata) | percent control (mortality, anti-feedant effect or growth inhibition) at 200 ppm (Chilo suppressalis) | mortality at 12 ppm (Myzus persicae)

C[C@H](NC(=O)c1cc(Cl)cc(C(F)(F)F)c1)c1ncnn1-c1ccc(=O)n(C)n1 [P4, 3-chloro-N-[(1S)-1-[2-(1-methyl-6-oxo-pyridazin-3-yl)-1,2,4-triazol-3-yl]ethyl]-5-(trifluoromethyl) benzamide]
≥ 80%: percent control (mortality or growth inhibition) at 200 ppm (Plutella xylostella) | percent control (mortality, anti-feedant effect or growth inhibition) at 200 ppm (Spodoptera littoralis) | percent effect (mortality or growth inhibition) at 200 ppm (Euschistus heros) | percent control (mortality or growth inhibition) at 200 ppm (Diabrotica balteata) | percent control (mortality, anti-feedant effect or growth inhibition) at 200 ppm (Chilo suppressalis) | mortality at 12 ppm (Myzus persicae)

CC(NC(=O)c1cc(Cl)cc(I)c1)c1nccnc1-c1ccc(=O)n(C)n1 (stereo not shown) [P12, 3-chloro-5-iodo-N-[1-[3-(1-methyl-6-oxo-pyridazin-3-yl)pyrazin-2-yl]ethyl]benzamide]
≥ 80%: percent control (mortality or growth inhibition) at 200 ppm (Plutella xylostella) | percent control (mortality, anti-feedant effect or growth inhibition) at 200 ppm (Spodoptera littoralis) | percent control (mortality or growth inhibition) at 200 ppm (Diabrotica balteata) | percent control (mortality, anti-feedant effect or growth inhibition) at 200 ppm (Chilo suppressalis) | mortality at 12 ppm (Myzus persicae)

CC(NC(=O)c1cc(Br)cc(Br)c1)c1nccnc1-c1ccc(=O)n(C)n1 (stereo not shown) [P13, 3,5-dibromo-N-[1-[3-(1-methyl-6-oxo-pyridazin-3-yl)pyrazin-2-yl]ethyl]benzamide]
≥ 80%: percent control (mortality or growth inhibition) at 200 ppm (Plutella xylostella) | percent control (mortality, anti-feedant effect or growth inhibition) at 200 ppm (Spodoptera littoralis) | percent control (mortality or growth inhibition) at 200 ppm (Diabrotica balteata) | percent control (mortality, anti-feedant effect or growth inhibition) at 200 ppm (Chilo suppressalis) | mortality at 12 ppm (Myzus persicae)

CC(NC(=O)c1cc(Br)cc(I)c1)c1nccnc1-c1ccc(=O)n(C)n1 (stereo not shown) [P15, 3-bromo-5-iodo-N-[1-[3-(1-methyl-6-oxo-pyridazin-3-yl)pyrazin-2-yl]ethyl]benzamide]
≥ 80%: percent control (mortality or growth inhibition) at 200 ppm (Plutella xylostella) | percent control (mortality, anti-feedant effect or growth inhibition) at 200 ppm (Spodoptera littoralis) | percent control (mortality, anti-feedant effect or growth inhibition) at 200 ppm (Chilo suppressalis) | mortality at 12 ppm (Myzus persicae)

C[C@H](NC(=O)c1cc(Cl)cc(S(=O)(=O)C(F)(F)F)c1)c1ncnn1C1=NN(C)C(=O)CC1 [P21, 3-chloro-N-[(1S)-1-[2-(1-methyl-6-oxo-4,5-dihydropyridazin-3-yl)-1,2,4-triazol-3-yl]ethyl]-5-(trifluoromethylsulfonyl) benzamide]
≥ 80%: percent control (mortality or growth inhibition) at 200 ppm (Plutella xylostella) | percent control (mortality, anti-feedant effect or growth inhibition) at 200 ppm (Spodoptera littoralis) | percent effect (mortality or growth inhibition) at 200 ppm (Euschistus heros) | percent control (mortality or growth inhibition) at 200 ppm (Diabrotica balteata) | percent control (mortality, anti-feedant effect or growth inhibition) at 200 ppm (Chilo suppressalis) | mortality at 12 ppm (Myzus persicae)

C[C@H](NC(=O)c1cc(C(F)(F)F)cc(C2(C#N)CC2)c1)c1ncnn1-c1ccc(=O)n(C)n1 [P25, 3-(1-cyanocyclopropyl)-N-[(1S)-1-[2-(1-methyl-6-oxo-pyridazin-3-yl)-1,2,4-triazol-3-yl]ethyl]-5-(trifluoromethyl)benzamide]
≥ 80%: percent control (mortality or growth inhibition) at 200 ppm (Plutella xylostella) | percent control (mortality, anti-feedant effect or growth inhibition) at 200 ppm (Spodoptera littoralis) | percent effect (mortality or growth inhibition) at 200 ppm (Euschistus heros) | percent control (mortality or growth inhibition) at 200 ppm (Diabrotica balteata) | percent control (mortality, anti-feedant effect or growth inhibition) at 200 ppm (Chilo suppressalis) | mortality at 12 ppm (Myzus persicae)

CC(NC(=O)c1cc(Cl)cc(S(=O)(=O)C(F)(F)F)c1)c1nccnc1-c1ccc(=O)n(C)n1 (stereo not shown) [P31, 3-chloro-N-[1-[3-(1-methyl-6-oxo-pyridazin-3-yl)pyrazin-2-yl]ethyl]-5-(trifluoromethylsulfonyl) benzamide]
≥ 80%: percent control (mortality or growth inhibition) at 200 ppm (Plutella xylostella) | percent control (mortality, anti-feedant effect or growth inhibition) at 200 ppm (Spodoptera littoralis) | percent control (mortality, anti-feedant effect or growth inhibition) at 200 ppm (Chilo suppressalis) | mortality at 12 ppm (Myzus persicae)

C[C@H](NC(=O)c1cc(Cl)cc(OC(F)F)c1)c1ncnn1-c1ccc(=O)n(C)n1 [P37, 3-chloro-5-(difluoromethoxy)-N-[(1S)-1-[2-(1-methyl-6-oxo-pyridazin-3-yl)-1,2,4-triazol-3-yl]ethyl]benzamide]
≥ 80%: percent control (mortality or growth inhibition) at 200 ppm (Plutella xylostella) | percent effect (mortality or growth inhibition) at 200 ppm (Euschistus heros) | percent control (mortality or growth inhibition) at 200 ppm (Diabrotica balteata) | mortality at 12 ppm (Myzus persicae)

CC(NC(=O)c1cc(Br)nc(C2(C#N)CC2)c1)c1nccnc1-c1ccc(=O)n(C)n1 (stereo not shown) [P38, 2-bromo-6-(1-cyanocyclopropyl)-N-[1-[3-(1-methyl-6-oxo-pyridazin-3-yl)pyrazin-2-yl]ethyl]pyridine-4-carboxamide]
≥ 80%: percent control (mortality or growth inhibition) at 200 ppm (Plutella xylostella) | percent control (mortality, anti-feedant effect or growth inhibition) at 200 ppm (Spodoptera littoralis) | percent control (mortality, anti-feedant effect or growth inhibition) at 200 ppm (Chilo suppressalis)

C[C@H](NC(=O)c1cc(Br)nc(C2(C#N)CC2)c1)c1ncnn1-c1ccc(=O)n(C)n1 [P39, 2-bromo-6-(1-cyanocyclopropyl)-N-[(1S)-1-[2-(1-methyl-6-oxo-pyridazin-3-yl)-1,2,4-triazol-3-yl]ethyl]pyridine-4-carboxamide]
≥ 80%: percent effect (mortality or growth inhibition) at 200 ppm (Euschistus heros)

CC(NC(=O)c1cc(Cl)cc(C(F)F)c1)c1nccnc1-c1ccc(=O)n(C)n1 (stereo not shown) [P41, 3-chloro-5-(difluoromethyl)-N-[1-[3-(1-methyl-6-oxo-pyridazin-3-yl)pyrazin-2-yl]ethyl]benzamide]
≥ 80%: percent control (mortality or growth inhibition) at 200 ppm (Plutella xylostella) | percent control (mortality, anti-feedant effect or growth inhibition) at 200 ppm (Spodoptera littoralis) | percent control (mortality or growth inhibition) at 200 ppm (Diabrotica balteata) | percent control (mortality, anti-feedant effect or growth inhibition) at 200 ppm (Chilo suppressalis) | mortality at 12 ppm (Myzus persicae)

C[C@H](NC(=O)c1cc(Cl)cc(C(F)F)c1)c1ncnn1-c1ccc(=O)n(C)n1 [P42, 3-chloro-5-(difluoromethyl)-N-[(1S)-1-[2-(1-methyl-6-oxo-pyridazin-3-yl)-1,2,4-triazol-3-yl]ethyl]benzamide]
≥ 80%: percent control (mortality or growth inhibition) at 200 ppm (Plutella xylostella) | percent control (mortality, anti-feedant effect or growth inhibition) at 200 ppm (Spodoptera littoralis) | percent effect (mortality or growth inhibition) at 200 ppm (Euschistus heros) | percent control (mortality or growth inhibition) at 200 ppm (Diabrotica balteata) | mortality at 12 ppm (Myzus persicae)

CC(NC(=O)c1cc(Br)cc(C(F)(F)F)c1)c1nccnc1-c1cn(C)c(=O)cn1 (stereo not shown) [P48, 3-bromo-N-[1-[3-(4-methyl-5-oxo-pyrazin-2-yl)pyrazin-2-yl]ethyl]-5-(trifluoromethyl)benzamide]
≥ 80%: percent control (mortality or growth inhibition) at 200 ppm (Plutella xylostella) | percent control (mortality, anti-feedant effect or growth inhibition) at 200 ppm (Spodoptera littoralis) | percent control (mortality or growth inhibition) at 200 ppm (Diabrotica balteata) | percent control (mortality, anti-feedant effect or growth inhibition) at 200 ppm (Chilo suppressalis) | mortality at 12 ppm (Myzus persicae)
